Article PMC4891693, “Discovery of prenylated flavonoids with dual activity against influenza virus and Streptococcus pneumoniae” (Scientific Reports, 2016)
Values after ≈ are worked out from the molar mass of the structure shown. Values joined by “and” are separate entries in the source; they are usually repeats but may differ in a detail not shown here. Equal values may be shown once. Read-outs that look alike come from different tables or passages of the source.

What was measured:
in vitro [1] = conditions: human
[2] = system: NA of S. pneumoniae DSM20566 (precipitated bacterial proteins); assay: Hemagglutination (HA)-based NA inhibition assay, bacterial; assay type: biochemical, Streptococcus pneumoniae; conditions: pure compounds; total protein of DSM20566; human erythrocytes; highest tested 100 μM
Description: Inhibition of pneumococcal NAs circumvents hemagglutination.

in vitro [3] = conditions: dog
human erythrocytes [4] = assay: Interference with hemagglutination in the viral HA assay
human erythrocytes [5] = system: human erythrocytes
human erythrocytes [6] = system: human erythrocytes; remark: listed apart in the source
[7] = target: influenza virus A/WSN/33 NA (Influenza A virus, UniProt P03470); assay: biochemical
[8] = system: IAV Jena/8178/2009 (8178/09); assay: microbe, parasite or virus in culture; assay type: cell-based, Influenza A virus; conditions: Influenza A virus, MDCK, 48 h; read-out: IC50 of CPE IAV 8178/09
influenza virus A/WSN/33 = assay: microbe, parasite or virus in culture; assay type: cell-based; conditions: WSN, MDCK, read-out: IC50 of CPE assay (A/WSN/33)

Chain of influenza virus A/WSN/33 NA (P03470 whole entry, looked up): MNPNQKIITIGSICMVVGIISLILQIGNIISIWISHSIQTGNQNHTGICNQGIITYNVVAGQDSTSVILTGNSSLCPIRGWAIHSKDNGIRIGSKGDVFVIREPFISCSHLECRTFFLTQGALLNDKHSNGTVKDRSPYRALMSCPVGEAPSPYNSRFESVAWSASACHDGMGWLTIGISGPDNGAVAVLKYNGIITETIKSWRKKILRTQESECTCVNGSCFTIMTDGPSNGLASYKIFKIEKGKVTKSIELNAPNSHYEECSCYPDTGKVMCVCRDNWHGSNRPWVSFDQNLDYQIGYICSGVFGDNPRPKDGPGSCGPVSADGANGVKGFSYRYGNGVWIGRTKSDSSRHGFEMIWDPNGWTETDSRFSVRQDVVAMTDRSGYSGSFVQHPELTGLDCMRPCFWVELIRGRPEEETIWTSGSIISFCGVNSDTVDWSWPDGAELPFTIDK

Structure (SMILES) | CC50 at 72 h (in vitro [1]) [µM] | MIC in HA assay against S. pneumoniae DSM20566 [2] | CC50 at 72 h (in vitro [3]) [µM] | sample concentrations provoking prevention of virus-induced hemagglutination in viral HA assay (human erythrocytes [4]) | sample concentrations provoking induction of erythrocyte lysis in viral HA assay (human erythrocytes [5]; human) | sample concentrations provoking induction of erythrocyte lysis in bacterial HA assay (human erythrocytes [6]; human) | IC50 [7] [µM] | CC50 (in vitro [1]) [µM] | CC50 (in vitro [3]) [µM] | IC50 [8] [µM] | sample concentrations provoking induction of erythrocyte lysis in viral HA assay (human erythrocytes [5]) | sample concentrations provoking induction of erythrocyte lysis in bacterial HA assay (human erythrocytes [6]) | IC50 (influenza virus A/WSN/33) [µM]
CC(C)=CCc1c(O)c(CC=C(C)C)c2c(c1O)C(=O)CC(c1cc(O)cc(O)c1)O2 (stereo not drawn) [Compound 29, 2-(3,5-dihydroxyphenyl)-2,3-dihydro-5,7-dihydroxy-6,8-bis(3-methyl-2-buten-1-yl)-4H-1-benzopyran-4-one] | 80.6 ± 2.47 | 31.6 ± 0.00 µM (≈ 13.4 µg/mL) | 34 ± 7.96 | 31.6 to 100 µM | 100 µM | 100 µM | 53.1 ± 17.5 |  |  |  |  |  | 
CC(C)=CCc1cc(C2CC(=O)c3c(O)cc(O)cc3O2)ccc1O (stereo not drawn) [Compound 20, 4',5,7-trihydroxy-3'-prenylflavanone] | > 100 |  | 67.9 ± 2.62 | no | 100 or no | 100 or no | > 100 |  |  |  |  |  | 
CC(C)=CCc1c(O)c(CC=C(C)C)c2occ(-c3ccc(O)c(O)c3)c(=O)c2c1O [Compound 31, 6,8-diprenylorobol] | 47.1 ± 2.83 |  | 20 ± 1.53 | no | 31.6 to 100 µM | 100 µM | 37.9 ± 14.6 |  |  |  |  |  | 
CC(C)=CC[C@]12Oc3cc(O)c([C@H]4C=C(C)C[C@H](c5ccc(O)cc5O)[C@H]4C(=O)c4ccc(O)cc4O)c(O)c3C(=O)[C@@]1(O)Oc1cc(O)ccc12 [Compound 2, sanggenon C] |  |  |  | 3.1 to 100 µM | 10 to 100 µM | 31.6 to 100 µM | 9.18 ± 1.5 | 32.6 ± 9.07 | 51.7 ± 12.2 | 8.3 ± 0.7 |  |  | 
CC(C)=CCc1c(O)c(CC=C(C)C)c2[nH]c3c(O)cccc3c(=O)c2c1O [Compound 34, atalphylline] |  | 17.2 ± 12.5 µM (≈ 6.53 µg/mL) |  | no |  |  | > 100 | 60.4 ± 16.8 | 0.63 ± 0.04 |  | no | no | 
CC(C)=CCc1c(O)cc(CCc2ccccc2)c(CC=C(C)C)c1O [Compound 33, 2,4-bis(3-methyl-2-buten-1-yl)-5-(2-phenylethyl)-1,3-benzenediol] | 41.7 ± 14.6 | 10.0 ± 0.00 µM (≈ 3.51 µg/mL) | 33.4 ± 21.4 | no |  |  | 97.7 ± 0.46 |  |  |  | no | no | 
CC(C)=CCc1cc(C2CC(=O)c3ccc(O)cc3O2)ccc1O (racemic) [Compound 18, (±)-abyssinone II] | > 100 |  | 59.2 ± 15 | no |  |  | > 100 |  |  | 25.9 ± 3.67 | no | no | 11.4 ± 3
CC1=C[C@H](c2c(O)ccc([C@@H]3CC(=O)c4c(O)cc(O)cc4O3)c2O)[C@@H](C(=O)c2ccc(O)cc2O)[C@H](c2ccc(O)cc2O)C1 [Compound 6, kuwanon L] |  | 31.6 µM and 31.6 ± 0.00 µM |  | 31.6 µM | 100 µM | 100 µM | 37.2 ± 10.6 | 94.4 ± 4.73 | > 100 |  |  |  | 
CC(C)=CCc1c(O)c(CC=C(C)C)c2c(c1O)C(=O)C[C@@H](c1ccc(O)cc1)O2 [Compound 28, 6,8-diprenylnaringenin] | 59.1 ± 19.8 | 15.4 ± 10.8 µM (≈ 6.29 µg/mL) | 15.8 ± 7.58 | no |  | 100 µM | > 100 |  |  |  | no |  | 
COc1cc(C2CC(=O)c3c(O)cc(O)cc3O2)cc(CC=C(C)C)c1O (stereo not drawn) [Compound 21, 2,3-dihydro-5,7-dihydroxy-2-[4-hydroxy-3-methoxy-5-(3-methyl-2-butenyl)phenyl]-4H-1-benzopyran-4-one] | > 100 | 65.8 ± 37.5 µM (≈ 24.4 µg/mL) | 64.9 ± 1.28 | no |  |  | 45.5 ± 6.06 |  |  |  | no | no | 
CC(C)=CCC/C(C)=C/Cc1c(O)cc2c(c1O)C(=O)[C@H](O)[C@@H](c1ccc(O)cc1)O2 [Compound 26, bonanniol A] | 63.2 ± 25.9 | 10.0 ± 0.00 µM (≈ 4.24 µg/mL) | 42.2 ± 22.6 | no | 31.6 to 100 µM | 100 µM | 63.9 ± 11.1 |  |  |  |  |  | 
COc1cc(C2CC(=O)c3c(O)cc(O)cc3O2)ccc1O (racemic) [Compound 9, (±)-homoeriodictyol] |  |  |  | no |  |  |  |  |  |  | no | no | 
CC(C)=CCC12Oc3cc(O)c(C4=CC5(C)CC(C4)c4ccc(O)cc4O5)c(O)c3C(=O)C1(O)Oc1cc(O)ccc12 (stereo not drawn) [Compound 1, sanggenon B] |  | 31.6 ± 0.00 µM (≈ 18 µg/mL) |  | 31.6 µM | 100 or no | 100 µM | 31.2 ± 10.1 | 32 ± 9.16 | 28.1 ± 7.26 |  |  |  | 
CC(C)=CCc1c(O)c(CC=C(C)C)c2c(c1O)C(=O)C(c1ccc(O)cc1O)CO2 (stereo not drawn) [Compound 32, orientanol E] | 79.6 ± 2.77 | 10.0 ± 0.00 µM (≈ 4.24 µg/mL) | 21.4 ± 0.73 | no | 31.6 to 100 µM | 31.6 to 100 µM | 26.9 ± 1.85 |  |  |  |  |  | 
COc1cc(C2CC(=O)c3c(cc(O)c(CC=C(C)C)c3O)O2)ccc1O (stereo not drawn) [Compound 22, 2,3-dihydro-5,7-dihydroxy-2-(4-hydroxy-3-methoxyphenyl)-6-(3-methyl-2-buten-1-yl)-4H-1-benzopyran-4-one] | > 100 | 31.6 ± 0.00 µM (≈ 11.7 µg/mL) | 63.4 ± 8.31 | no |  |  | > 100 |  |  |  | no | no | 
CC(C)=CCC/C(C)=C/Cc1c(O)cc2c(c1O)C(=O)CC(c1ccc(O)c(O)c1)O2 (stereo not drawn) [Compound 25] | > 100 | 14.3 ± 9.66 µM (≈ 6.07 µg/mL) | 55.8 ± 4.41 | 31.6 µM | 100 or no | 100 µM | 41.4 ± 6.98 |  |  |  |  |  | 
CC(C)=CCc1c(O)c(CC=C(C)C)c2occ(-c3ccc(O)cc3)c(=O)c2c1O [Compound 30, 6,8-diprenylgenistein] | 48.8 ± 16 | 10.0 ± 0.00 µM (≈ 4.06 µg/mL) | 21.1 ± 0.91 | 10 to 100 µM |  | 31.6 to 100 µM | 62.5 ± 5.4 |  |  |  | no |  | 
COc1ccc(C2CC(=O)c3c(cc(O)c(CC=C(C)C)c3O)O2)cc1 (stereo not drawn) [Compound 19] | > 100 |  | 50.5 ± 6.32 | no |  | 31.6 to 100 µM | > 100 |  |  |  | no |  | 
CC(C)=CCc1c(O)cc(O)c2c1O[C@@H](c1ccc(O)cc1)[C@H](O)C2=O (relative stereo) [Compound 23, (2R,3R)-rel-4H-2,3-dihydro-3,5,7-trihydroxy-2-(4-hydroxyphenyl)-8-(3-methyl-2-buten-1-yl)-1-benzopyran-4-one] | > 100 | 31.6 ± 0.00 µM (≈ 11.3 µg/mL) | 69 ± 3.56 | no |  |  | 27 ± 3.24 |  |  | 24.7 ± 4.55 | no | no | 
CC(C)=CCC/C(C)=C/Cc1c(O)cc(O)c2c1OC(c1ccccc1)CC2=O (racemic) [Compound 24, (R,S)-8-geranyl-5,7-dihydroxyflavanone] | > 100 | 3.16 ± 0.00 µM (≈ 1.24 µg/mL) | 60.6 ± 3.81 | 100 µM |  | 100 µM | > 100 |  |  |  | no |  | 
